Test results published in patent publication US10702528B2, “Hepatitis B antiviral agents” (Enanta Pharmaceuticals, Inc., priority 2015, dated 2020).
Where two headings read alike, the source gives them in different places.

Tests used:
HBV = assay: HepAD38 antiviral screen: reduction of viral product accumulation (virion DNA by qPCR; HBsAg/HBeAg ELISA); type: cell-based; conditions: Hepatitis B virus
Protocol: (§1) Methods: HepAD38 cells are maintained as previously reported (Ladner et al, Antimicrob. Agents Chemother. 1997, […], 1715). Briefly, cells are passaged upon attaining confluency in DMEM/F12 media in the presence of 10% FBS, Penn/Strep, 250 μg/mL G418, and 1 μg/ml tetracycline. Novel compounds are screened by first washing cells three times with PBS to remove tetracycline, and plating in 96 well plates at 35,000 cells/well. Compounds dissolved in DMSO are then diluted 1:200 into wells containing cells. Five days after compound addition, material is harvested for analysis. For an extended 8 day analysis, cells are plated and treated as described above, but media and compound are refreshed on d2 and d5 post initial treatment.
On harvest day, virion DNA is obtained by lysing with Sidestep Lysis and Stabilization Buffer and then quantified via quantitative real time PCR. Commercially available ELISA kits are used to quantitate the viral proteins HBsAg (Alpco) or HbeAg (US Biological) by following the manufacturer's recommended protocol after diluting samples to match the linear range of their respective assays. Irrespective of readout, compound concentrations that reduce viral product accumulation in the cell lysates or supernatants by relative to no drug controls (EC50) are reported; EC50 ranges are as follows: A<1 μM; B 1-10 μM; C>10 μM.

[1] = Compound toxicity by ATPlite 1 Step (total ATP levels) in HepAD38 cells; type: cell-based; conditions: human, day of harvest, concentration reducing total ATP levels by 50% relative to no drug controls
Protocol: as §1
Additionally, on day of harvest, compound toxicity is evaluated by treating cells with ATPlite 1 Step according to the manufacturer's protocol. Compound concentrations that reduce total ATP levels in wells by 50% relative to no drug controls (CC50) are reported; CC50 ranges are as follows: A>30 μM; B 10-30 μM; C<10 μM.

[2] = 120 h, HepAD38 cells, harvest five days after compound addition, reduction of viral product accumulation relative to no drug controls, read-out: HepAD38 EC50

| Compound | EC50 (HBV; [2]) | CC50 [1] | EC50 (HBV; HePAD38, 120 h, read-out: HepAD38 EC50 (μM)) |
| --- | --- | --- | --- |
| CC1=C(CN(C)C)C(c2ccc(F)cc2Cl)N=C(c2nccs2)N1 (racemic) [Example 8] | > 10 µM | > 30 µM | – |
| CC1=C(C#N)C(c2ccc(F)cc2Cl)N=C(c2nccs2)N1 (stereo not shown) [Example 32] | < 1 µM | > 30 µM | – |
| CC1=C(c2ccn(C)n2)[C@H](c2ccc(F)cc2Cl)N=C(c2nccs2)N1 (single isomer, unassigned) [Example 16b] | < 1 µM | > 30 µM | – |
| CC1=C(C(=O)N(C)S(C)(=O)=O)C(c2ccc(F)cc2Cl)N=C(c2nccs2)N1 (racemic) [Example 22] | > 10 µM | > 30 µM | – |
| CCOC(=O)C1=C(C)NC(C(=O)OC)=NC1c1ccc(F)cc1Cl (stereo not shown) [Example 31] | 1 to 10 µM | > 30 µM | – |
| CC1=C(CO)C(c2ccc(F)cc2Cl)N=C(c2nccs2)N1 (racemic) [Example 9] | 1 to 10 µM | > 30 µM | – |
| CC(=O)C1=C(C)NC(c2nccs2)=NC1c1ccc(F)cc1Cl (racemic) [Example 11] | < 1 µM | > 30 µM | – |
| CC1=C(c2ncco2)[C@@H](c2ccc(F)cc2Cl)N=C(c2nccs2)N1 (single isomer, unassigned) [Example 13a] | 1 to 10 µM | > 30 µM | – |
| CC1=C(c2ccn(C)n2)C(C)(c2ccc(F)cc2Cl)N=C(c2nccs2)N1 (stereo not shown) [Example 48] | > 10 µM | – | – |
| Cn1ccc(C2=C(CN3CCOCC3)NC(c3nccs3)=N[C@H]2c2ccc(F)cc2Cl)n1 [Example 53] | < 1 µM | – | – |
| CC1=C(c2ccn(C)n2)C(c2ccc(F)cc2Cl)N=C(c2nccs2)N1 (racemic) [Example 16] | < 1 µM | > 30 µM | – |
| CCOC(=O)C1=C(CN2CC(F)(F)C[C@H]2C(=O)NS(C)(=O)=O)NC(c2nccs2)=NC1c1ccc(F)cc1Cl (stereo partly shown) [Example 2] | 1 to 10 µM | > 30 µM | – |
| CC1=C(c2nccn2C)C(c2ccc(F)cc2Cl)N=C(c2nccs2)N1 (stereo not shown) [Example 33] | 1 to 10 µM | > 30 µM | – |
| CCOC(=O)C1=C(CC2CC(F)(F)C[C@H]2C(=O)O)NC(c2nccs2)=NC1C1CCCC1 (stereo partly shown) [Example 7] | 1 to 10 µM | > 30 µM | – |
| COCC1=C(C)NC(c2nccs2)=NC1c1ccc(F)cc1Cl (racemic) [Example 10] | 1 to 10 µM | > 30 µM | – |
| CC1=C(c2ncco2)[C@H](c2ccc(F)cc2Cl)N=C(c2nccs2)N1 (single isomer, unassigned) [Example 13b] | < 1 µM | > 30 µM | – |
| Cn1ccc(C2=C(CO)NC(c3nccs3)=NC2c2ccc(F)cc2Cl)n1 (stereo not shown) [Example 41] | < 1 µM | 10 to 30 µM | – |
| CCOC(=O)C1=C(CN2CC(F)(F)C[C@H]2C#N)NC(c2nccs2)=NC1c1ccc(F)cc1Cl (stereo partly shown) [Example 3] | < 1 µM | > 30 µM | – |
| CC1=C(c2cc(C)no2)C(c2ccc(F)cc2Cl)N=C(c2nccs2)N1 (racemic) [Example 15] | < 1 µM | > 30 µM | – |
| CCOC(=O)C1=C(CN2CCC[C@H]2C(=O)NS(C)(=O)=O)NC(c2nccs2)=NC1c1ccc(F)cc1Cl (stereo partly shown) [Example 1] | 1 to 10 µM | 10 to 30 µM | – |

| Compound | EC50 (HBV; [2]) | CC50 [1] | EC50 (HBV; HePAD38, 120 h, read-out: HepAD38 EC50 (μM)) |
| --- | --- | --- | --- |
| CC1=C(c2ccccn2)C(c2ccc(F)cc2Cl)N=C(c2nccs2)N1 (racemic) [Example 19] | 1 to 10 µM | > 30 µM | – |
| CC1=C(c2nn[nH]n2)C(c2ccc(F)cc2Cl)N=C(c2nccs2)N1 (stereo not shown) [Example 27] | > 10 µM | > 30 µM | – |
| CCOC(=O)[C@@H]1CC(F)(F)CN1CC1=C(C(=O)NS(C)(=O)=O)C(c2ccc(F)cc2Cl)N=C(c2nccs2)N1 (stereo partly shown) [Example 4] | > 10 µM | > 30 µM | – |
| CC1=C(c2ncco2)C(c2ccc(F)cc2Cl)N=C(c2nccs2)N1 (racemic) [Example 13] | < 1 µM | > 30 µM | – |
| CC1=C(c2ccn(C)n2)[C@@H](c2ccc(F)cc2Cl)N=C(c2nccs2)N1 (single isomer, unassigned) [Example 16a] | < 1 µM | > 30 µM | – |
| CCOC(=O)[C@@H]1CC(F)(F)CN1CC1=C(c2ccn(C)n2)C(c2ccc(F)cc2Cl)N=C(c2nccs2)N1 (stereo partly shown) [Example 39] | < 1 µM | > 30 µM | – |
| COC(=O)[C@@H]1CCC[C@H]1N1C[C@@H]2CN(CC3=C(c4ccn(C)n4)[C@H](c4ccc(F)cc4Cl)N=C(c4nccs4)N3)CCN2C1=O [Example 55] | 1 to 10 µM | – | – |
| COC(=O)/C=C1\NC(c2nccs2)=NC(c2ccc(F)cc2Cl)C1c1ccn(C)n1 (stereo not shown) [Example 45] | 1 to 10 µM | 10 to 30 µM | – |
| CC1=C(c2ncco2)C(C)(c2ccc(F)cc2Cl)N=C(c2nccs2)N1 (stereo not shown) [Example 47] | > 10 µM | – | – |
| COCC1=C(c2ccn(C)n2)C(c2ccc(F)cc2Cl)N=C(c2nccs2)N1 (stereo not shown) [Example 35] | < 1 µM | > 30 µM | – |
| C=CCOC(=O)C1=CNC(c2nccs2)=NC1(C)c1ccc(F)cc1 (stereo not shown) [Example 51] | 1 to 10 µM | – | – |
| CCOC(=O)C1=CNC(c2nccs2)=NC1(C)c1ccc(F)cc1 (stereo not shown) [Example 49] | 1 to 10 µM | – | – |
| CCn1ccc(C2=C(C)NC(c3nccs3)=NC2c2ccc(F)cc2Cl)n1 (stereo not shown) [Example 34] | < 1 µM | > 30 µM | – |
| CCOP(=O)(OCC)C1=C(C)NC(c2nccs2)=NC1c1ccc(F)cc1Cl (racemic) [Example 26] | – | > 30 µM | > 10 µM |
| Cn1ccc(C2=C(CN3C4CCC3CC(O)C4)NC(c3nccs3)=N[C@H]2c2ccc(F)cc2Cl)n1 (stereo partly shown) [Example 54] | 1 to 10 µM | – | – |
| CCOC(=O)C1=CNC(c2nccs2)=NC1(C)c1ccc(F)cc1Cl (stereo not shown) [Example 57] | 1 to 10 µM | – | – |
| Cn1ccc(C2=C(CN3CC(F)(F)C[C@H]3C(=O)O)NC(c3nccs3)=NC2c2ccc(F)cc2Cl)n1 (stereo partly shown) [Example 38] | < 1 µM | > 30 µM | – |
| CCOC(=O)C1=C(C)NC(N2CCCC2=O)=NC1c1ccc(F)cc1Cl (stereo not shown) [Example 29] | > 10 µM | > 30 µM | – |
| Cn1ccc(C2=CNC(c3nccs3)=NC2(C)c2ccc(F)cc2)n1 (stereo not shown) [Example 50] | 1 to 10 µM | – | – |
| Cn1ccc(C2=C(CN=[N+]=[N-])NC(c3nccs3)=NC2c2ccc(F)cc2Cl)n1 (stereo not shown) [Example 42] | < 1 µM | > 30 µM | – |

| Compound | EC50 (HBV; [2]) | CC50 [1] | EC50 (HBV; HePAD38, 120 h, read-out: HepAD38 EC50 (μM)) |
| --- | --- | --- | --- |
| CC1=C(c2nccs2)C(c2ccc(F)cc2Cl)N=C(c2nccs2)N1 (racemic) [Example 14] | < 1 µM | > 30 µM | – |
| CC1=C(c2ccccc2)C(c2ccc(F)cc2Cl)N=C(c2nccs2)N1 (racemic) [Example 18] | < 1 µM | 10 to 30 µM | – |
| CCOC(=O)[C@@H]1CC(F)(F)CC1CC1=C(C#N)C(c2ccc(F)cc2Cl)N=C(c2nccs2)N1 (stereo partly shown) [Example 5] | 1 to 10 µM | > 30 µM | – |
| COC(=O)CC1=C(c2ccn(C)n2)C(c2ccc(F)cc2Cl)N=C(c2nccs2)N1 (stereo not shown) [Example 44] | 1 to 10 µM | > 30 µM | – |
| CNS(=O)(=O)C1=C(C)NC(c2nccs2)=NC1c1ccc(F)cc1Cl (stereo not shown) [Example 28] | > 10 µM | > 30 µM | – |
| CN(C)CC1=C(c2ccn(C)n2)C(c2ccc(F)cc2Cl)N=C(c2nccs2)N1 (stereo not shown) [Example 37] | > 10 µM | 10 to 30 µM | – |
| Cn1ccc(C2=CNC(c3nccs3)=NC2c2ccc(F)cc2Cl)n1 (stereo not shown) [Example 36] | < 1 µM | > 30 µM | – |
| CC1=C(C(=O)NS(C)(=O)=O)C(c2ccc(F)cc2Cl)N=C(c2nccs2)N1 (racemic) [Example 21] | > 10 µM | > 30 µM | – |
| CCOC(=O)C1=C(C)NC(N2CCCC2)=NC1c1ccc(F)cc1Cl (stereo not shown) [Example 30] | > 10 µM | > 30 µM | – |
| CC1=C(c2ccnn2C)C(c2ccc(F)cc2Cl)N=C(c2nccs2)N1 (racemic) [Example 17] | < 1 µM | > 30 µM | – |
| Cn1ccc(C2=C(CN3C4CCC3COC4)NC(c3nccs3)=N[C@H]2c2ccc(F)cc2Cl)n1 [Example 52] | < 1 µM | – | – |
| CCOC(=O)C1=C(CC2CCC[C@H]2C(=O)O)NC(c2nccs2)=NC1C1CCCCC1 (stereo partly shown) [Example 6] | > 10 µM | > 30 µM | – |
| Cn1ccc(C2=C(CF)NC(c3nccs3)=NC2c2ccc(F)cc2Cl)n1 (stereo not shown) [Example 43] | < 1 µM | > 30 µM | – |
| CC1=C(c2ncccn2)C(c2ccc(F)cc2Cl)N=C(c2nccs2)N1 (racemic) [Example 20] | 1 to 10 µM | > 30 µM | – |
| C=CC1=C(C)NC(c2nccs2)=NC1c1ccc(F)cc1Cl (racemic) [Example 12] | < 1 µM | > 30 µM | – |
| CC1=C(S(C)(=O)=O)C(c2ccc(F)cc2Cl)N=C(c2nccs2)N1 (racemic) [Example 25] | > 10 µM | > 30 µM | – |
| Cn1ccc(C2=C(CC(=O)O)NC(c3nccs3)=NC2c2ccc(F)cc2Cl)n1 (stereo not shown) [Example 46] | > 10 µM | 10 to 30 µM | – |
| Cn1ccc(C2=C(CC#N)NC(c3nccs3)=NC2c2ccc(F)cc2Cl)n1 (stereo not shown) [Example 40] | 1 to 10 µM | > 30 µM | – |
